# Experimental data: PMC11289455 (Scientific Reports, 2024)
# Where two headings read alike, the source gives them in different places.
# Legend:
# [1] = Exposure in colon tissue and colon contents in TNBS studies; type: in vivo, rat; conditions: TNBS rats, LC-MS/MS, LLOQ=2.6 nM
# Description: Rats were deprived of food for 24 h prior to induction of colitis by intrarectal installation of TNBS 48 mg/kg (Sigma Aldrich; Raleigh, NC) in 50% ethanol on Day 0. All dose groups (n = approximately 10/group; up to 3 separate experiments) received TNBS, except negative controls, which received only water (n = 4). Rats were weighed daily. Euthanasia by overexposure to isoflurane occurred on Day 7. Following euthanasia, blood was collected retro-orbitally into serum separator microtainer tubes (Becton Dickinson; Franklin Lakes, NJ), centrifuged (2–3 min at 4 °C, 14,000 RPM), and stored at − 80 °C. Additionally, the whole colon was excised, measured, and photographed, and then cut open to allow for collection of the contents, which were weighed and flash frozen. After removal of the contents, colons were weighed and flash frozen. […] Colon weight/length ratio was calculated.
# Table S3. […] All samples were analyzed using an LC-MS/MS method (LLOQ=2.6 nM).
# [2] = biological target: T1, H2 (histamine H2 receptor) (Homo sapiens, UniProt P25021); test: SafetyScreen44: H2; type: binding
# T1 construct: purchased Eurofins Cerep SafetyScreen44
# T1 sequence (P25021 whole entry): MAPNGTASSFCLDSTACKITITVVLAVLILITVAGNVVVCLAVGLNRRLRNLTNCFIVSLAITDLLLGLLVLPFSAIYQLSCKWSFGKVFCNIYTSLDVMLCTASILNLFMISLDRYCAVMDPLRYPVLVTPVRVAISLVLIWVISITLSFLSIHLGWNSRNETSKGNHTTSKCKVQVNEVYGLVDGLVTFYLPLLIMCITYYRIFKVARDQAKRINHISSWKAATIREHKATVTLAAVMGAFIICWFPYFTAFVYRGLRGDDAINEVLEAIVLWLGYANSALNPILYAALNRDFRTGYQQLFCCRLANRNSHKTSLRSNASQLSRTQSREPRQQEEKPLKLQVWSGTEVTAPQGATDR
# [3] = biological target: T2, 5-HT1B (serotonin 1B receptor) (Rattus norvegicus, UniProt P28564); test: SafetyScreen44: 5-HT1B; type: binding
# T2 construct: purchased Eurofins Cerep SafetyScreen44
# T2 sequence (P28564 whole entry): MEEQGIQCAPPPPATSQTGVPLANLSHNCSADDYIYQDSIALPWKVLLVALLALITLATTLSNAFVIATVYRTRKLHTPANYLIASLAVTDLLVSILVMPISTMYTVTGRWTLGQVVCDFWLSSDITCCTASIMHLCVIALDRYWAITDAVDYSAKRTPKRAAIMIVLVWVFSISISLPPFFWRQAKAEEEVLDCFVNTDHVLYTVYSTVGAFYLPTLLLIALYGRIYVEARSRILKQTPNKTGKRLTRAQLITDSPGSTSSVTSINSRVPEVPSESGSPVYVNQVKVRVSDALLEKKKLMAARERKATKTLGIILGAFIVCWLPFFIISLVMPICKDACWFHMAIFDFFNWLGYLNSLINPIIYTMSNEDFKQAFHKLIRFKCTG
# [4] = biological target: T3, μ (MOP) (mu opioid receptor) (Homo sapiens, UniProt P35372); test: SafetyScreen44: μ (MOP); type: binding
# T3 construct: purchased Eurofins Cerep SafetyScreen44
# T3 sequence (P35372 whole entry): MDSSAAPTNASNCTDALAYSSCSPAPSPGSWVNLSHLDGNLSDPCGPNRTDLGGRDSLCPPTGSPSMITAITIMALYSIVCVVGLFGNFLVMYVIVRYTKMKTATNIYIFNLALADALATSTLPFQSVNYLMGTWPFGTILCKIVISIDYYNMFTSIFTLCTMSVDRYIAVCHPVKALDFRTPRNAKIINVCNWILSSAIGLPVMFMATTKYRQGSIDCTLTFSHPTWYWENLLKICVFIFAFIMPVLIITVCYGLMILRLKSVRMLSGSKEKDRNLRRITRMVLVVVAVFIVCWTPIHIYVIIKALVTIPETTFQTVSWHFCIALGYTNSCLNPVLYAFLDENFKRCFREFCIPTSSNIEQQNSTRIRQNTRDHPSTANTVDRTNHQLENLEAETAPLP
# [5] = biological target: T4, M3 (muscarinic acetylcholine receptor M3) (Homo sapiens, UniProt P20309); test: SafetyScreen44: M3; type: binding
# T4 construct: purchased Eurofins Cerep SafetyScreen44
# T4 sequence (P20309 whole entry): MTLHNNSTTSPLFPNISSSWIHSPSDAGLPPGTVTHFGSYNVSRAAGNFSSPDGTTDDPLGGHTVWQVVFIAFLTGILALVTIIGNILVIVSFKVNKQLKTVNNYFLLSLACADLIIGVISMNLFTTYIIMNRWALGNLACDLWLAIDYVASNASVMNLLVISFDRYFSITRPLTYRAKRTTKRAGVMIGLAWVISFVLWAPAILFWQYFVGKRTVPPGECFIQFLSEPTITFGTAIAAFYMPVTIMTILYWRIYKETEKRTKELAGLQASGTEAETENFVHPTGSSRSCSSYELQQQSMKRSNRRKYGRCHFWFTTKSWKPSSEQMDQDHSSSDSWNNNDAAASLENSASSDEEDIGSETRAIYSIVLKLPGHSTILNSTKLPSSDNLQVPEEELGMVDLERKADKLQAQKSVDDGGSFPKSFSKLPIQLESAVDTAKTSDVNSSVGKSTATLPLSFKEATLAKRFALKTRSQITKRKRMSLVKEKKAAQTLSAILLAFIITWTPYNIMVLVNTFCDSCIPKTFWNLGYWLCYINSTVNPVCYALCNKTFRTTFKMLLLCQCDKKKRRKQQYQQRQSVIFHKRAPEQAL
# [6] = test system: healthy participants; test: First-in-human study, safety and tolerability; type: in vivo
# From the text: The purpose of the first-in-human, single-center, randomized, double-blind, placebo-controlled study was to determine the safety, tolerability, pharmacokinetics, and pharmacodynamics of JNJ-77242113 in healthy participants. […] AEs were coded using the Medical Dictionary for Regulatory Activities (Version 23.1).
# [7] = biological target: T5, PDE3A (phosphodiesterase 3A) (Homo sapiens, UniProt Q14432); test: SafetyScreen44: PDE3A; type: biochemical
# T5 construct: purchased Eurofins Cerep SafetyScreen44
# T5 sequence (Q14432 whole entry): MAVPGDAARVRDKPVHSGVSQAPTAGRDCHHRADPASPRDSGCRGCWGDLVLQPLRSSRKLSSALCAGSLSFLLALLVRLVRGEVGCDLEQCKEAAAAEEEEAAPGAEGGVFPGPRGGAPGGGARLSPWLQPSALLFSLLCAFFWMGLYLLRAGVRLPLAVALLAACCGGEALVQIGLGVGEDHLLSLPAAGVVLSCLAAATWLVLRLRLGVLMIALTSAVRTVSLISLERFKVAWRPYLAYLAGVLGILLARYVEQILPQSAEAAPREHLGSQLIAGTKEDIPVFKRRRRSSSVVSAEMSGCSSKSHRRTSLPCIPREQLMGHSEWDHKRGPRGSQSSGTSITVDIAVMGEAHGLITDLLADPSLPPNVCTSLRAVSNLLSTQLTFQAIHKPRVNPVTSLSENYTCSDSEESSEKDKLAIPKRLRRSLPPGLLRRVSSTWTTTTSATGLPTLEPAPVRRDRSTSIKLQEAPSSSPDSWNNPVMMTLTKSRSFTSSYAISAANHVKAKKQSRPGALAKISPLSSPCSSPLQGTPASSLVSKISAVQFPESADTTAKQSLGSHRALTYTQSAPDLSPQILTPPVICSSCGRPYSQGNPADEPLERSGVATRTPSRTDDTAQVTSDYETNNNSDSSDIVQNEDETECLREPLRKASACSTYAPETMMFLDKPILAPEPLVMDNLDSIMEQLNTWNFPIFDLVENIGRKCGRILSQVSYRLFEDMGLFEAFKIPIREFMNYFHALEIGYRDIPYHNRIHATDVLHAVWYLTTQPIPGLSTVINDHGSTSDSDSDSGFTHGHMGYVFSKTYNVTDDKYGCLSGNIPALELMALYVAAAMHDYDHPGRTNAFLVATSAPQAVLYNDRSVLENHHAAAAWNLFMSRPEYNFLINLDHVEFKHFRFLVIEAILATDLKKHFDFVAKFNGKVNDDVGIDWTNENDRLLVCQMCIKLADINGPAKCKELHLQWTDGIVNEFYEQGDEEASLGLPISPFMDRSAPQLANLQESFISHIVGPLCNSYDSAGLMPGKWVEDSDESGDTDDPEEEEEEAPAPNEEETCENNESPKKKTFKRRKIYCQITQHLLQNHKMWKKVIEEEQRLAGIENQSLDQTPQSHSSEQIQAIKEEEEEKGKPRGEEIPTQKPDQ
# [8] = biological target: T6, GR (glucocorticoid receptor) (Homo sapiens, UniProt P04150); test: SafetyScreen44: GR; type: binding
# T6 construct: purchased Eurofins Cerep SafetyScreen44
# T6 sequence (P04150 1-777): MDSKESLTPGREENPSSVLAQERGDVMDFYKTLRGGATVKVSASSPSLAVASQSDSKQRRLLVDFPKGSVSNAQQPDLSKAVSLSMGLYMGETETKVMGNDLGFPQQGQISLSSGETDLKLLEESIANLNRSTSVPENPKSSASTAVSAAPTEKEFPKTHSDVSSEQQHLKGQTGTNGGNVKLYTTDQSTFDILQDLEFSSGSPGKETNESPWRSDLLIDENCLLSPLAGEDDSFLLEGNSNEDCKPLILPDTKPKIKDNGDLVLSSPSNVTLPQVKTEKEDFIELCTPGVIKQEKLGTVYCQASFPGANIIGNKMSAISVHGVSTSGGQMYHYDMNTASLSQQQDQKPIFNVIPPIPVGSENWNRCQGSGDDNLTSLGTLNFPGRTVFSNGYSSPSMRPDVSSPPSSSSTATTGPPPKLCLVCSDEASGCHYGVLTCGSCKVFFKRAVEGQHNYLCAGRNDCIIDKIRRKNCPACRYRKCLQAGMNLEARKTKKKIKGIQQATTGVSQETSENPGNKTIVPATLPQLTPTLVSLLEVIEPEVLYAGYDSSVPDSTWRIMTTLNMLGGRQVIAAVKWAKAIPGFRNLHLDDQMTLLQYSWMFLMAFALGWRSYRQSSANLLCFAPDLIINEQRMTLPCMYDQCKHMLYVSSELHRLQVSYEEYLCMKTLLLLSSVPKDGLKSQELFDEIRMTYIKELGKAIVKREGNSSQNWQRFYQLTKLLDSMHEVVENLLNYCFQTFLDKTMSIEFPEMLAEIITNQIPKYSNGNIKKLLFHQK
smiles,measurement,setting,value
"CC(=O)NCCCC[C@@H]1NC(=O)[C@H](Cc2c[nH]c3c(C)cccc23)NC(=O)[C@H]([C@@H](C)O)NC(=O)[C@H](CC(N)=O)NC(=O)[C@@H](NC(C)=O)C(C)(C)SSC(C)(C)[C@@H](C(=O)N[C@@H](Cc2ccc(OCCN)cc2)C(=O)N[C@@H](Cc2ccc3ccccc3c2)C(=O)NC2(C(=O)N[C@@H](CCC(=O)O)C(=O)N[C@@H](CC(N)=O)C(=O)N[C@@H](Cc3cccnc3)C(=O)N(C)CC(N)=O)CCOCC2)NC1=O [JNJ-77242113, S^3,1,S^3,6-cyclo[N-acetyl-3-sulfanyl-L-valyl-L-asparaginyl-L-threonyl-7-methyl-L-tryptophyl-N^6-acetyl-L-lysyl-3-sulfanyl-L-valyl-O-(2-aminoethyl)-L-tyrosyl-3-(naphthalen-2-yl)-L-alanyl-4-aminooxan-4-carbonyl-L-α-glutamyl-L-asparaginyl-3-(pyridin-3-yl)-L-alanyl-N^2-methylglycinamide]]",Colon tissue concentration,"[1]; 0.03 mg/kg/day oral, Study 2",BQL
same,level at time molar,"[1]; 0.1 mg/kg/day oral, Study 1, read-out: Colon content concentration",410 nM
same,level at time molar,"[1]; 0.1 mg/kg/day oral, Study 1, read-out: Colon tissue concentration",12.8 nM
same,level at time molar,"[1]; 0.1 mg/kg/day oral, Study 2, read-out: Colon content concentration",310 nM
same,level at time molar,"[1]; 0.1 mg/kg/day oral, Study 2, read-out: Colon tissue concentration",16.8 nM
same,Colon tissue concentration,"[1]; 0.1 mg/kg/day oral, Study 3",BQL
same,level at time molar,"[1]; 0.1 mg/kg/day oral, Study 3, read-out: Colon content concentration",299 nM
same,level at time molar,"[1]; 0.3 mg/kg/day oral, Study 1, read-out: Colon tissue concentration",25.4 nM
same,level at time molar,"[1]; 1 mg/kg/day oral, Study 1, read-out: Colon content concentration",3340 nM
same,level at time molar,"[1]; 1 mg/kg/day oral, Study 2, read-out: Colon content concentration",3920 nM
same,level at time molar,"[1]; 1 mg/kg/day oral, Study 3, read-out: Colon content concentration",3190 nM
same,level at time molar,"[1]; 3 mg/kg/day oral, Study 1, read-out: Colon content concentration",9210 nM
same,level at time molar,"[1]; 3 mg/kg/day oral, Study 1, read-out: Colon tissue concentration",333 nM
same,level at time molar,"[1]; 3 mg/kg/day oral, Study 2, read-out: Colon content concentration",11700 nM
same,level at time molar,"[1]; 3 mg/kg/day oral, Study 2, read-out: Colon tissue concentration",468 nM
same,level at time molar,"[1]; 3 mg/kg/day oral, Study 3, read-out: Colon content concentration",11000 nM
same,level at time molar,"[1]; 3 mg/kg/day oral, Study 3, read-out: Colon tissue concentration",268 nM
same,level at time molar,"[1]; male, Sprague-Dawley, rat, colon content, po, 0.03 mg/kg/day, 0.03 mg/kg/day oral, Study 2, read-out: Colon content concentration",90.1 nM
same,level at time molar,"[1]; male, Sprague-Dawley, rat, colon content, po, 0.3 mg/kg/day, 0.3 mg/kg/day oral, Study 1, read-out: Colon content concentration",973 nM
same,level at time molar,"[1]; male, Sprague-Dawley, rat, colon content, po, 0.3 mg/kg/day, 0.3 mg/kg/day oral, Study 2, read-out: Colon content concentration",1050 nM
same,level at time molar,"[1]; male, Sprague-Dawley, rat, colon content, po, 0.3 mg/kg/day, 0.3 mg/kg/day oral, Study 3, read-out: Colon content concentration",1680 nM
same,level at time molar,"[1]; male, Sprague-Dawley, rat, colon content, po, 10 mg/kg/day, 10 mg/kg/day oral, Study 2, read-out: Colon content concentration",38700 nM
same,level at time molar,"[1]; male, Sprague-Dawley, rat, colon tissue, po, 0.3 mg/kg/day, 0.3 mg/kg/day oral, Study 2, read-out: Colon tissue concentration",47.5 nM
same,level at time molar,"[1]; male, Sprague-Dawley, rat, colon tissue, po, 0.3 mg/kg/day, 0.3 mg/kg/day oral, Study 3, read-out: Colon tissue concentration",23.4 nM
same,level at time molar,"[1]; male, Sprague-Dawley, rat, colon tissue, po, 1 mg/kg/day, 1 mg/kg/day oral, Study 1, read-out: Colon tissue concentration",84.3 nM
same,level at time molar,"[1]; male, Sprague-Dawley, rat, colon tissue, po, 1 mg/kg/day, 1 mg/kg/day oral, Study 2, read-out: Colon tissue concentration",168 nM
same,level at time molar,"[1]; male, Sprague-Dawley, rat, colon tissue, po, 1 mg/kg/day, 1 mg/kg/day oral, Study 3, read-out: Colon tissue concentration",83.2 nM
same,level at time molar,"[1]; male, Sprague-Dawley, rat, colon tissue, po, 10 mg/kg/day, 10 mg/kg/day oral, Study 2, read-out: Colon tissue concentration",1410 nM
same,inhibition at 10 µM,"[2]; 1st run, read-out: Percent inhibition of control ligand binding, H2, 1st run",-26.6%
same,inhibition at 10 µM,"[2]; 2nd run, read-out: Percent inhibition of control ligand binding, H2, 2nd run",-22%
same,inhibition at 10 µM,"[2]; mean of 2 runs, read-out: Percent inhibition of control ligand binding, H2, Mean",-24.3%
same,inhibition at 10 µM,"[3]; 1st run, read-out: Percent inhibition of control ligand binding, 5-HT1B, 1st run",0%
same,inhibition at 10 µM,"[3]; 2nd run, read-out: Percent inhibition of control ligand binding, 5-HT1B, 2nd run",-9.8%
same,inhibition at 10 µM,"[3]; mean of 2 runs, read-out: Percent inhibition of control ligand binding, 5-HT1B, Mean",-4.9%
same,inhibition at 10 µM,"[4]; 1st run, read-out: Percent inhibition of control ligand binding, μ (MOP), 1st run",5.1%
same,inhibition at 10 µM,"[4]; 2nd run, read-out: Percent inhibition of control ligand binding, μ (MOP), 2nd run",-4.8%
same,inhibition at 10 µM,"[4]; mean of 2 runs, read-out: Percent inhibition of control ligand binding, μ (MOP), Mean",0.1%
same,inhibition at 10 µM,"[5]; 1st run, read-out: Percent inhibition of control ligand binding, M3, 1st run",-10.5%
same,inhibition at 10 µM,"[5]; 2nd run, read-out: Percent inhibition of control ligand binding, M3, 2nd run",-5.2%
same,inhibition at 10 µM,"[5]; mean of 2 runs, read-out: Percent inhibition of control ligand binding, M3, Mean",-7.8%
same,Serious AEs or deaths related to JNJ-77242113,[6]; all cohorts,No serious AEs or deaths
same,Severity of adverse events,[6]; all cohorts,mild or moderate
same,"Headache, participants, Part 2","[6]; healthy participants, multiple ascending dose",13.6%
same,"Frequency of treatment-related AEs, Part 2","[6]; healthy participants, multiple ascending dose, JNJ-77242113 groups",46%
same,"Headache, participants, Part 1","[6]; healthy participants, single ascending dose",10.3%
same,"Frequency of treatment-related AEs, Part 1","[6]; healthy participants, single ascending dose, JNJ-77242113 groups",31%
same,inhibition at 10 µM,"[7]; 1st run, read-out: Percent inhibition of control ligand binding, PDE3A, 1st run",-30.6%
same,inhibition at 10 µM,"[7]; 2nd run, read-out: Percent inhibition of control ligand binding, PDE3A, 2nd run",-44.7%
same,inhibition at 10 µM,"[7]; mean of 2 runs, read-out: Percent inhibition of control ligand binding, PDE3A, Mean",-37.6%
same,inhibition at 10 µM,"[8]; 1st run, read-out: Percent inhibition of control ligand binding, GR, 1st run",3.5%
same,inhibition at 10 µM,"[8]; 2nd run, read-out: Percent inhibition of control ligand binding, GR, 2nd run",-0.8%
same,inhibition at 10 µM,"[8]; mean of 2 runs, read-out: Percent inhibition of control ligand binding, GR, Mean",1.3%
